For assay [1], the system named is TACE enzyme. As to conditions: from WO 00/44709, table 10, example 61; cited from earlier work.
Assay [2] has as its target TACE enzyme (Homo sapiens, UniProt P78536). Kind of assay: Enzymatic assay for TACE inhibition. The class given is biochemical. As to conditions: for % TACE inhibition at 10 μM: 10 μM compound.
Experimental: (§1) A serial 3-fold dilution over 10 points is carried out so as to have a concentration range of from 10 μM to 0.5 nM final concentration. […] The substrate is used at 40 μM. […] The IC50 is determined using mathematical processing software (XLfit).
A further assay addresses MMP1 (Homo sapiens (Human), UniProt P03956). Kind of assay: Selectivity assay MMP1. The format is biochemical.
Another assay has as its target MMP9 (Homo sapiens (Human), UniProt P14780). Kind of assay: Selectivity assay MMP9. The class given is biochemical.
Another assay has as its target ADAM9 (Homo sapiens (Human), UniProt Q13443). As to the kind of experiment: Selectivity assay ADAM9. The class given is biochemical.
The target of the next assay is MMP3 (Homo sapiens (Human), UniProt P08254). Kind of assay: Selectivity assay MMP3. The class given is biochemical.
Another assay concerns the target ADAM10 (Homo sapiens (Human), UniProt O14672). As to the kind of experiment: Selectivity assay ADAM10. The class given is biochemical.
Setting [3] is: fluorescent substrate 40 μM, pH 7.4.

pIC50: −log10 of the molar value. Some results are limits rather than exact numbers.

Chain of TACE enzyme (Homo sapiens, UniProt P78536) (P78536 215-824 limits assumed): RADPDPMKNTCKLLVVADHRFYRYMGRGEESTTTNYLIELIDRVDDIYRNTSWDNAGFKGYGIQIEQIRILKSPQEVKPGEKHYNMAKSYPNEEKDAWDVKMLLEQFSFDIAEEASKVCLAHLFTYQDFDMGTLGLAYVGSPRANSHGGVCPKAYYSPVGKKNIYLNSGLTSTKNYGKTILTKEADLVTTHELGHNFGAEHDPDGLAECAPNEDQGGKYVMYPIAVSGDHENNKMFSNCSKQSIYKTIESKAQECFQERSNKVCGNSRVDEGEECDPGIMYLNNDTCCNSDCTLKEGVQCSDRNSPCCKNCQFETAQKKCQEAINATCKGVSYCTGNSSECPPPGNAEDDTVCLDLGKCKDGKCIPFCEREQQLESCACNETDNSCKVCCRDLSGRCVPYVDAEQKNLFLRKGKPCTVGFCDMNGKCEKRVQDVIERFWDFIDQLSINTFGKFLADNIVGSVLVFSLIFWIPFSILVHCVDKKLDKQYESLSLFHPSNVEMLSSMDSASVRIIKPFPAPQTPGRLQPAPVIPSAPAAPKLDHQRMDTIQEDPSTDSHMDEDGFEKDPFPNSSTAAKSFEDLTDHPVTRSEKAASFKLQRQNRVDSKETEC
Chain of MMP3 (P08254 100-477, species assumed): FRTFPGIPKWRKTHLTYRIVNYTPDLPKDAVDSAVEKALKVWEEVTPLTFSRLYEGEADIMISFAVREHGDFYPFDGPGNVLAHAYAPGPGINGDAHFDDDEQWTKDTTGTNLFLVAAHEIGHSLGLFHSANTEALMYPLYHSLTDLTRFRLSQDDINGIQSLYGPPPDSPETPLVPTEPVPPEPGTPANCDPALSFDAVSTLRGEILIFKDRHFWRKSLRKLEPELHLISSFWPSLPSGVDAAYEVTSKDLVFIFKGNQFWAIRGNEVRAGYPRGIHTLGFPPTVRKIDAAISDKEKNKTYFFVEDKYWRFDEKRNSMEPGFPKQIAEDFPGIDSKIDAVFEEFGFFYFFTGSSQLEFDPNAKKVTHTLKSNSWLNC
Chain of MMP1 (P03956 100-469, species assumed): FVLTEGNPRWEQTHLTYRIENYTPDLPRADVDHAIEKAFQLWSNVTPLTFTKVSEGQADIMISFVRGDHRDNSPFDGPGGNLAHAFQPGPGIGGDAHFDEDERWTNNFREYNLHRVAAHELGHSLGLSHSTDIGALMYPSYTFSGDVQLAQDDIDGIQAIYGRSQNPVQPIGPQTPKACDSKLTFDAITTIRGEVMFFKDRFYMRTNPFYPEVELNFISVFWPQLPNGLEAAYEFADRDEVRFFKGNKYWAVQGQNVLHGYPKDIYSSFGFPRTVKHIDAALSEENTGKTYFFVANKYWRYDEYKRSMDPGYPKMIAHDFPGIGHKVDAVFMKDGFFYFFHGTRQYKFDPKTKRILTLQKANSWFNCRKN
Chain of ADAM9 (Q13443 29-819, species assumed): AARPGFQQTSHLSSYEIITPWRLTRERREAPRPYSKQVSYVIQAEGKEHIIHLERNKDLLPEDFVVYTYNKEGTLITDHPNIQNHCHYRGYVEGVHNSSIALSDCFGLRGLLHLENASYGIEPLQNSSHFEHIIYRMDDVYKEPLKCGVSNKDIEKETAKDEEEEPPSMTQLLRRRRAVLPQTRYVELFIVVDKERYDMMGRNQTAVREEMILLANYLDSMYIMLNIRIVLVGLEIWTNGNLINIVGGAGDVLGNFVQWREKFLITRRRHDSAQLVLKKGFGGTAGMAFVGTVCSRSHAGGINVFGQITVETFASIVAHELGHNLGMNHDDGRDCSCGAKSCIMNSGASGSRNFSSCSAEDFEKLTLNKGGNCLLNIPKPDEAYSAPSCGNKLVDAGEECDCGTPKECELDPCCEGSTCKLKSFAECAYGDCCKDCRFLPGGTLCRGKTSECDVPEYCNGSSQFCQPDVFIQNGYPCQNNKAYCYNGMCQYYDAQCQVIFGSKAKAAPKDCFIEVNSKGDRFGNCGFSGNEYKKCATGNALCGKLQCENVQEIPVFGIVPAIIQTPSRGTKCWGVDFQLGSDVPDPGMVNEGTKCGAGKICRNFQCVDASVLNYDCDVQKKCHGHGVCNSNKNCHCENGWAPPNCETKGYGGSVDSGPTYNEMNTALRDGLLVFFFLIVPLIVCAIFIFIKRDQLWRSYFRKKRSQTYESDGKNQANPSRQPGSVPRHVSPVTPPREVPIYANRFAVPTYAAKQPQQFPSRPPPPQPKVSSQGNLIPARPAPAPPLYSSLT
Chain of MMP9 (P14780 94-707, species assumed): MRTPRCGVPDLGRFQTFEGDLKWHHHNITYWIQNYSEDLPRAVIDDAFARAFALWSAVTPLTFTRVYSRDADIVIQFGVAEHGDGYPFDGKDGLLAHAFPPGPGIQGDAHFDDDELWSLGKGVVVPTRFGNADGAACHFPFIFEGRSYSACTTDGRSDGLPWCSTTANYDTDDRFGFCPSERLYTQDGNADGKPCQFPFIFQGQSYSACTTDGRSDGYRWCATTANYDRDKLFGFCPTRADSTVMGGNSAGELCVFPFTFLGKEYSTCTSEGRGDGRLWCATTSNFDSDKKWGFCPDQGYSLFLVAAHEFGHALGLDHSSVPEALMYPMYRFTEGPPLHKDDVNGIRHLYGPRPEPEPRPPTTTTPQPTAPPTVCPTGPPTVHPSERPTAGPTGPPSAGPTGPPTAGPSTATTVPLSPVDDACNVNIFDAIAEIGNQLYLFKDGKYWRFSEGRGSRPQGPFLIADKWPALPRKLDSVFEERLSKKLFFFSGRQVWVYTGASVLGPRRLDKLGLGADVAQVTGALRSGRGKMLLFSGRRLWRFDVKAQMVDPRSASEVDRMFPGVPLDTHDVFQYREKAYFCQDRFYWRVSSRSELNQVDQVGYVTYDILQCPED
Chain of ADAM10 (O14672 214-748, species assumed): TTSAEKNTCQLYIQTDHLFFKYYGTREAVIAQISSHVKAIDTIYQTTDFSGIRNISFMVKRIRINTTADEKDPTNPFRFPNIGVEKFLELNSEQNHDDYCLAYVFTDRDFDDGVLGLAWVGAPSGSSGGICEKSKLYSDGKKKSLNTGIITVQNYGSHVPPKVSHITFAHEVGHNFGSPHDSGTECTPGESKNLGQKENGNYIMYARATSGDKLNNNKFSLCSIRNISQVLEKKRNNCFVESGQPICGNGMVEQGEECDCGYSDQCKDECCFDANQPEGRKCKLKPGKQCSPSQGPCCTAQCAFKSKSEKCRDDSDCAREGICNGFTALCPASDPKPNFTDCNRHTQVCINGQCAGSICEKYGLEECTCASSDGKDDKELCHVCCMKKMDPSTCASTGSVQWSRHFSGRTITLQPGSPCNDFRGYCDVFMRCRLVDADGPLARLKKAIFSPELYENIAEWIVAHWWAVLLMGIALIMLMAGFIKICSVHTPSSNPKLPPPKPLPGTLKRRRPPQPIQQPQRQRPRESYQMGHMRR
Experimental for ADAM10: as §1
(§2) The enzymes are purchased from Calbiochem.
Experimental for ADAM9: as §1, §2
Experimental for MMP1: as §1, §2
Experimental for MMP9: as §1, §2

With `CC1(C)SCCN(S(=O)(=O)c2ccc(OCC#CCO)cc2)[C@H]1C(=O)NO` [Apratastat], the “selectivity for the TACE enzyme compared with certain MMPs” value with TACE enzyme [1] is on record as “not selective”.
For `O=C(NO)[C@H](CNS(=O)(=O)c1ccc(OCc2ccc(Cl)c(Cl)c2)cc1)N1CCCCC1` [Example 6, (S)-3-[4-(3,4-dichlorobenzyloxy)benzenesulfonylamino]-N-hydroxy-2-piperidin-1-ylpropionamide], the “% TACE inhibition at 10 μM” value on TACE enzyme [2] is 97%. For the same molecule, the pIC50 – broadly, the negative decadic logarithm of the IC50, by convention in mol/L – on TACE enzyme [2] (setting [3]) was 6.48.
As to `O=C(NO)[C@H](CNS(=O)(=O)c1ccc(OCc2ccc(F)cc2)cc1)N1CCCCC1` [Example 3, (S)-3-[4-(4-fluorobenzyloxy)benzenesulfonylamino]-N-hydroxy-2-piperidin-1-ylpropionamide], the “% TACE inhibition at 10 μM” value on TACE enzyme [2] was 97%. For the same molecule, the pIC50 at TACE enzyme [2] (setting [3]) is 6.74.
Consider `O=C(NO)[C@H](CNS(=O)(=O)c1ccc(OCc2ccc3ccccc3c2)cc1)N1CCCCC1` [Example 5, (S)—N-Hydroxy-3-[4-(naphthalen-2-ylmethoxy)benzenesulfonylamino]-2-piperidin-1-ylpropionamide], for which the “% TACE inhibition at 10 μM” value on TACE enzyme [2] is 97%. On TACE enzyme [2] (setting [3]), the pIC50 was 6.60.
The matching figures for `O=C(NO)[C@H](CNS(=O)(=O)c1ccc(OCc2cc(Cl)cc(Cl)c2)cc1)N1CCCCC1` [Example 9, (S)-3-[4-(3,5-dichlorobenzyloxy)benzenesulfonylamino]-N-hydroxy-2-piperidin-1-ylpropionamide]: 99% and 6.33.
Regarding `Cc1cc(COc2ccc(S(=O)(=O)NC[C@@H](C(=O)NO)N3CCCCC3)cc2)c2ccccc2n1` [Example 8, (S)—N-hydroxy-3-[4-(2-methylquinolin-4-ylmethoxy)benzenesulfonylamino]-2-piperidin-1-ylpropionamide], the pIC50 against MMP1 was 5.52; against MMP9, under 5.00; on ADAM9 it was under 5.00; at MMP3, 5.35; on ADAM10 it was under 5.00. Also, the “% TACE inhibition at 10 μM” value at TACE enzyme [2] is 99%.
Turning to `O=C(NO)[C@H](CNS(=O)(=O)c1ccc(OCc2ccccc2)cc1)N1CCCC1` [Example 2, (S)-3-(4-benzyloxybenzenesulfonylamino)-N-hydroxy-2-pyrrolidin-1-ylpropionamide], the “% TACE inhibition at 10 μM” value on TACE enzyme [2] is on record as 95%. The pIC50 against TACE enzyme [2] (setting [3]) was 6.53.
For `Cc1cc(COc2ccc(S(=O)(=O)NC[C@@H](C(=O)NO)N3CCOCC3)cc2)c2ccccc2n1` [Example 14, (S)—N-hydroxy-3-[4-(2-methylquinolin-4-ylmethoxy)benzenesulfonylamino]-2-morpholin-4-ylpropionamide], the pIC50 at MMP3 was 5.52; against TACE enzyme [2] (as listed in selectivity assay table), 7.62; at TACE enzyme [2] (setting [3]), 7.42. The “% TACE inhibition at 10 μM” value on TACE enzyme [2] stood at 91%.
Consider `O=C(NO)[C@H](CNS(=O)(=O)c1ccc(OCc2ccccc2)cc1)N1CCOCC1` [Example 7, (S)-3-(4-benzyloxybenzenesulfonylamino)-N-hydroxy-2-morpholin-4-ylpropionamide], for which the “% TACE inhibition at 10 μM” value on TACE enzyme [2] was found to be 98%. This molecule showed a pIC50 against TACE enzyme [2] (setting [3]) of 6.83.
As for `O=C(NO)[C@H](CNS(=O)(=O)c1ccc(OCc2ccccc2)cc1)N1CCCCC1` [Example 1, (S)-3-(4-benzyloxybenzenesulfonylamino)-N-hydroxy-2-piperidin-1-ylpropionamide], the “% TACE inhibition at 10 μM” value on TACE enzyme [2] was found to be 98%. Also, the pIC50 against TACE enzyme [2] (setting [3]) is 6.74.
As for `Cc1cc(COc2ccc(S(=O)(=O)NC[C@@H](C(=O)NO)N3CCCCC3)cc2)c2ccccc2n1.Cl.Cl` [Example 15, (S)—N-hydroxy-3-[4-(2-methylquinolin-4-ylmethoxy)benzenesulfonylamino]-2-piperidin-1-ylpropionamide dihydrochloride], at TACE enzyme [2], the “% TACE inhibition at 10 μM” value came to 98%.

The values are drawn from US8772478B2, “Benzenesulfonamide compounds, method for synthesizing same, and use thereof in medicine as well as in cosmetics” (Galderma Research & Development, priority 2009, dated 2014).
